≈ marks a conversion by molar mass, not a printed value.
Tests used:
Format in all cases: functional
Escherichia coli [1] = assay: Antimicrobial activity against Escherichia coli isolate CQ19 PFGE type S harboring qepA gene by agar dilution method
Escherichia coli [2] = assay: Antimicrobial activity against Escherichia coli isolate CQ14 PFGE type M harboring qepA gene by agar dilution method
Escherichia coli [3] = assay: Antimicrobial activity against Escherichia coli isolate GZ16 transconjugant harboring 16S rRNA methylase RmtB and qepA by agar dilution method relative to recipient strain
Escherichia coli [4] = assay: Antimicrobial activity against Escherichia coli isolate GZ12 PFGE type F harboring qepA gene by agar dilution method
Escherichia coli [5] = assay: Antimicrobial activity against Escherichia coli isolate CQ6 transconjugant harboring 16S rRNA methylase RmtB and qepA, qnrS2, aac(6')-Ib-cr gene by agar dilution method relative to recipient strain
Escherichia coli [6] = assay: Antimicrobial activity against Escherichia coli isolate GZ6 PFGE type B harboring qepA gene by agar dilution method
Escherichia coli [7] = assay: Antimicrobial activity against Escherichia coli isolate CQ16 transconjugant harboring 16S rRNA methylase RmtB and qepA, qnrS2, aac(6')-Ib-cr gene by agar dilution method relative to recipient strain
Escherichia coli [8] = assay: Antimicrobial activity against Escherichia coli isolate CQ18 transconjugant harboring 16S rRNA methylase RmtB and qepA by agar dilution method relative to recipient strain
Escherichia coli [9] = assay: Antimicrobial activity against Escherichia coli isolate CQ2 PFGE type I2 harboring qepA gene by agar dilution method
Escherichia coli [10] = assay: Antimicrobial activity against Escherichia coli isolate GZ6 transconjugant harboring 16S rRNA methylase RmtB and qepA by agar dilution method relative to recipient strain
Escherichia coli [11] = assay: Antimicrobial activity against Escherichia coli isolate CQ1 transconjugant harboring 16S rRNA methylase RmtB and qnrB6 by agar dilution method relative to recipient strain
Escherichia coli [12] = assay: Antimicrobial activity against Escherichia coli isolate GZ16 PFGE type H harboring qepA gene by agar dilution method
Escherichia coli [13] = assay: Antimicrobial activity against Escherichia coli isolate CQ4 PFGE type J1 harboring qepA gene by agar dilution method
Escherichia coli [14] = assay: Antimicrobial activity against Escherichia coli isolate CQ20 PFGE type J1 harboring qepA gene by agar dilution method
Escherichia coli [15] = assay: Antimicrobial activity against Escherichia coli isolate GZ10 PFGE type R harboring qepA gene by agar dilution method
Escherichia coli [16] = assay: Antimicrobial activity against Escherichia coli isolate GZ14 PFGE type F harboring qepA gene by agar dilution method
Escherichia coli [17] = assay: Antimicrobial activity against Escherichia coli isolate GZ12 transconjugant harboring 16S rRNA methylase RmtB and qepA by agar dilution method relative to recipient strain
Escherichia coli [18] = assay: Antimicrobial activity against Escherichia coli isolate GZ4 transconjugant harboring 16S rRNA methylase RmtB and qepA by agar dilution method relative to recipient strain
Escherichia coli [19] = assay: Antimicrobial activity against Escherichia coli isolate CQ10 transconjugant harboring 16S rRNA methylase RmtB and qepA by agar dilution method relative to recipient strain

Question: With `CCN1CCN(c2cc3c(cc2F)c(=O)c(C(=O)O)cn3C2CC2)CC1` [ENROFLOXACIN] as the molecule, how does the MIC (Escherichia coli [1]) read?
Answer: The MIC was 2 µg/mL (≈ 5.56 µM).

Question: And the MIC (Escherichia coli [2])?
Answer: Its MIC is 16 µg/mL (≈ 44.5 µM).

Question: What about the “fold change (FC)” value (Escherichia coli [3]) of the same molecule?
Answer: The value was 2.

Question: And the MIC (Escherichia coli [4])?
Answer: Its MIC is 16 µg/mL (≈ 44.5 µM).

Question: And the “fold change (FC)” value (Escherichia coli [5])?
Answer: Its value is 2.

Question: What about the MIC (Escherichia coli [6]) of the same molecule?
Answer: Its MIC is 16 µg/mL (≈ 44.5 µM).

Question: What about the “fold change (FC)” value (Escherichia coli [7]) of the same molecule?
Answer: The value was 2.

Question: What about the “fold change (FC)” value (Escherichia coli [8]) of the same molecule?
Answer: The value was 1.

Question: What about the MIC (Escherichia coli [9]) of the same molecule?
Answer: The MIC was 2 µg/mL (≈ 5.56 µM).

Question: And the “fold change (FC)” value (Escherichia coli [10])?
Answer: Its value is 2.

Question: And the “fold change (FC)” value (Escherichia coli [11])?
Answer: The value was 1.

Question: And the MIC (Escherichia coli [12])?
Answer: Its MIC is over 128 µg/mL.

Question: What about the MIC (Escherichia coli [13]) of the same molecule?
Answer: Its MIC is 0.03 µg/mL (≈ 0.0835 µM).

Question: What about the MIC (Escherichia coli [14]) of the same molecule?
Answer: The MIC was 0.03 µg/mL (≈ 0.0835 µM).

Question: What about the MIC (Escherichia coli [15]) of the same molecule?
Answer: Its MIC is 16 µg/mL (≈ 44.5 µM).

Question: And the MIC (Escherichia coli [16])?
Answer: Its MIC is 16 µg/mL (≈ 44.5 µM).

Question: And the “fold change (FC)” value (Escherichia coli [17])?
Answer: The value was 4.

Question: And the “fold change (FC)” value (Escherichia coli [18])?
Answer: The value was 4.

Question: What about the “fold change (FC)” value (Escherichia coli [19]) of the same molecule?
Answer: Its value is 2.
